This note sets out measurements from patent US20200303198A1, “POLISHING COMPOSITION AND POLISHING METHOD” (FUJIMI INCORPORATED, priority 2019, published 2020).

This data set is described as follows: Solubility of biocide in water. It counts as physicochemical. The note with it: in words.

Take `O=C(OCc1ccccc1)c1ccc(O)cc1` [benzyl paraoxybenzoate]: the solubility in water result is given as “poor solubility in water”.
